Data set [1] has as its system cypris larvae of the barnacle Amphibalanus amphitrite. Briefly: Antifouling assay: settlement and mortality of barnacle cyprids after 48 h. The data set is classed as in vivo. The note with it: for EC50: Amphibalanus amphitrite, 48 h, read-out: EC50 (antifouling activity), cypris larvae, 48 h incubation, probit analysis; for toxicity / mortality of cypris larvae: at a concentration of 10 μg/mL. The method, then:
(§1) Adult barnacles (Amphibalanus amphitrite) procured from oyster farms at Lake Hamana and a pier at Shimizu bay, Shizuoka, were kept in an aquarium at 20 °C and fed on Artemia salina nauplii. Broods were released as I–II stage nauplii upon immersion in seawater after drying overnight. The nauplii thus obtained were cultured in filtered natural seawater (salinity 28) containing penicillin G (20 μg/mL) and streptomycin sulfate (30 μg/mL) and were fed on the diatom Chaetoceros gracilis at concentrations of 40 × 10^4 cells/mL. […] The cyprids were collected and stored at 4 °C until use (0 days old).
(§2) The test compounds were dissolved in ethanol and aliquots of the solution were transferred to wells of a 24-well polystyrene culture plate and air-dried. Four wells were used for each concentration. To each well, filtered seawater (2.0 mL, salinity 28) and six 2-day-old cyprids were added. The plates were kept in the dark at 25 °C for 48 h. […] Three or four trials were done for each concentration. Probit analysis was used to calculate the EC50 values.

Test in data set [2]: as above
The format is in vivo. The note with it: cypris larvae, 48 h incubation, read-out: LC50 (toxicity). The method, then:
as §1, §2

In data set [3] the test system is cypris larvae of the barnacle Amphibalanus amphitrite. The following applies: cited from earlier work.
The mark [4] stands for this setting: Amphibalanus amphitrite (barnacle, in vivo, other: immersion in seawater holding the compound).
Setting [5] is: synthetic sample of 1 and its synthetic intermediates.

In brackets after ≈: the same amount, converted by molar mass. Like-named read-outs stand apart in the source and are kept apart here.

These results are taken from publication PMC5532645, “Design, Synthesis, and Antifouling Activity of Glucosamine-Based Isocyanides” (Marine Drugs, 2017).

By EC50 is commonly meant the concentration needed to bring the measured effect to its halfway point. Broadly, the LC50 is the concentration lethal to half of the exposed cells or organisms.

Regarding `[C-]#[N+][C@H]1[C@H](OCC(F)(F)F)O[C@H](COC(C)=O)[C@@H](OC(C)=O)[C@@H]1OC(C)=O` [Compound 6g], the EC50 in data set [1] stood at 0.36 µg/mL (≈ 0.906 µM). Also, the LC50 at 48 h in data set [2] (setting [4]) is greater than 10 µg/mL.
For `[C-]#[N+][C@H]1[C@H](OC(C)C)O[C@H](COC(=O)CCCCCCCCCCCCCCC)[C@@H](OC(=O)CCCCCCCCCCCCCCC)[C@@H]1OC(=O)CCCCCCCCCCCCCCC` [Compound 6i], in that order: 0.31 µg/mL (≈ 0.328 µM) and greater than 10 µg/mL.
For `[C-]#[N+][C@H]1[C@H](OC(=O)CCCCCCCCCCCCCCC)O[C@H](COC(=O)CCCCCCCCCCCCCCC)[C@@H](OC(=O)CCCCCCCCCCCCCCC)[C@@H]1OC(=O)CCCCCCCCCCCCCCC` [Compound 6b], in data set [1], the concentration for a half-maximal effect (EC50) was greater than 5 µg/mL and the “toxicity / mortality of cypris larvae” value is given as “lethal larva was not observed”. Further, the LC50 at 48 h in data set [2] (setting [4]) was greater than 10 µg/mL.
For `[C-]#[N+][C@H]1[C@H](OC(C)C)O[C@H](COC(C)=O)[C@@H](OC(C)=O)[C@@H]1OC(C)=O` [Compound 6f], the EC50 in data set [1] is 0.23 µg/mL (≈ 0.644 µM). In addition, the LC50 at 48 h in data set [2] (setting [4]) was greater than 10 µg/mL.
Take `[C-]#[N+][C@H]1[C@H](OC(C)C)O[C@H](CO[Si](C)(C)C(C)(C)C)[C@@H](O[Si](C)(C)C(C)(C)C)[C@@H]1O[Si](C)(C)C(C)(C)C` [Compound 6k]: the 50% effective concentration (EC50) in data set [1] came out at 0.25 µg/mL (≈ 0.436 µM). In addition, in data set [2] (Amphibalanus amphitrite (barnacle, in vivo)), the LC50 at 48 h is greater than 10 µg/mL.
For `[C-]#[N+][C@H]1[C@H](OCC=C)O[C@H](COC(C)=O)[C@@H](OC(C)=O)[C@@H]1OC(C)=O` [Compound 6e], the EC50 in data set [1] is 0.37 µg/mL (≈ 1.04 µM). Moreover, in data set [2] (setting [4]), the LC50 at 48 h was greater than 10 µg/mL.
Turning to `[C-]#[N+][C@H]1[C@H](OC(C)C)O[C@H](COC(=O)CCCCCCC)[C@@H](OC(=O)CCCCCCC)[C@@H]1OC(=O)CCCCCCC` [Compound 6h], the concentration giving a half-maximal response (EC50) in data set [1] came out at 0.79 µg/mL (≈ 1.3 µM). In data set [2] (setting [4]), the LC50 at 48 h was greater than 10 µg/mL.
Turning to `[C-]#[N+][C@H]1[C@H](Oc2ccccc2)O[C@H](COC(C)=O)[C@@H](OC(C)=O)[C@@H]1OC(C)=O` [Compound 6c], the EC50 in data set [1] stood at 0.71 µg/mL (≈ 1.81 µM). In addition, the LC50 at 48 h in data set [2] (setting [4]) was greater than 10 µg/mL.
For `[C-]#[N+][C@]1(C)CC[C@@H](/C(C)=C/C=C/C(C)C)CC1` [Compound 4, 3-isocyanotheonellin], in data set [3] (previously reported), the “EC50 (antifouling activity)” value is 0.19 µg/mL (≈ 0.821 µM) and the LC50 is greater than 10 µg/mL.
On to `CC1=C[C@H]2[C@H](CC1)[C@@H](O)CC[C@@H]2C(C)C` [Compound 2], for which, in data set [3] (setting [5]), the “EC50 (antifouling activity)” value was 0.31 µg/mL (≈ 1.49 µM) and the LC50 was greater than 10 µg/mL.
`[C-]#[N+][C@H]1[C@H](OC(C)=O)O[C@H](COC(C)=O)[C@@H](OC(C)=O)[C@@H]1OC(C)=O` [Compound 6a]: in data set [1], the EC50 is greater than 5 µg/mL and the “toxicity / mortality of cypris larvae” value is given as “lethal larva was not observed”. Besides, the LC50 at 48 h in data set [2] (setting [4]) was greater than 10 µg/mL.
Consider `O=S(=O)([O-])[O-].[Cu+2]` [CuSO4], for which the “EC50 (antifouling activity)” value in data set [3] (CuSO4 used as a fouling inhibitor) was 0.27 µg/mL.
For `[C-]#[N+][C@H]1[C@H](OCc2ccccc2)O[C@H](COC(C)=O)[C@@H](OC(C)=O)[C@@H]1OC(C)=O` [Compound 6d], the EC50 in data set [1] was 0.7 µg/mL (≈ 1.73 µM). Also, the LC50 at 48 h in data set [2] (setting [4]) is greater than 10 µg/mL.
Consider `[C-]#[N+][C@H]1[C@H](OC(C)C)O[C@H](COC(=O)c2ccccc2)[C@@H](OC(=O)c2ccccc2)[C@@H]1OC(=O)c1ccccc1` [Compound 6j], for which, in data set [1], the EC50 came to 0.81 µg/mL (≈ 1.49 µM). In data set [2] (setting [4]), the LC50 at 48 h was greater than 10 µg/mL.
With `[C-]#[N+][C@@]1(C)CC[C@H](C(C)C)[C@H]2C=C(C)CC[C@@H]21` [Compound 1, 10-isocyano-4-cadinene], in data set [3] (natural compound obtained from nudibranchs), the “EC50 (antifouling activity)” value is 0.14 µg/mL (≈ 0.605 µM). The “LC50 (50% lethal concentration)” value in data set [3] (natural compound) is greater than 10 µg/mL. In addition, in data set [3] (setting [5]), the “EC50 (antifouling activity)” value is 0.06 µg/mL (≈ 0.259 µM) and the LC50 was greater than 10 µg/mL.
